In patent publication US10865191B2, “Heterocyclic compounds useful as modulators of TNF alpha” (BRISTOL-MYERS SQUIBB COMPANY, priority 2015, dated 2020):
Read-outs that look alike come from different tables or passages of the source.

Molecular target: TNFα (Homo sapiens, UniProt P01375)
Assay: TNF induced HEK-Blue assay (NF-kB-driven secreted alkaline phosphatase reporter)
Type: cell-based
Conditions: TNFα 0.5 ng/mL, HEK-Blue-CD40L cells, 18 h
Method in brief: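 HEK-Blue-CD40L cells (NF-kB-driven SEAP reporter), 20,000/well, added after 30 min pre-incubation of compound (0.004–25 μM final) with TNFα 0.5 ng/mL final at 37 °C; 18 h incubation. SEAP read with QUANTI-Blue at 620 nm; IC50 from 4-parameter logistic fit, normalized to unstimulated and stimulated DMSO controls.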

[1] = read-out: TNF induced HEK-Blue assay IC50 value

Sequence of TNFα (P01375 77-233 limits assumed): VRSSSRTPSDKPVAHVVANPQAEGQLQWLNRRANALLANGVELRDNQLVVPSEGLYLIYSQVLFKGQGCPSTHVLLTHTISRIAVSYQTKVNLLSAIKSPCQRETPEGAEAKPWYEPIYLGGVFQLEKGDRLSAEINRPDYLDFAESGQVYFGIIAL

Structure (SMILES)	IC50 [1] [µM]	IC50 (TNF induced HEK-Blue assay IC50 value) [µM]
CCC(Nc1c(Cl)cnc2ccc(-c3cnc(C(C)(C)O)nc3)cc12)c1ccccc1F (racemic) [Example 190, 2-(5-(3-chloro-4-((1-(2-fluorophenyl)propyl)amino)quinolin-6-yl)pyrimidin-2-yl)propan-2-ol]	–	< 1
CC(C)(O)c1ncc(-c2ccc3ncc(Cl)c(NC(c4ccccc4F)C4CC4)c3c2)cn1 (racemic) [Example 191, 2-(5-(3-chloro-4-((cyclopropyl(2-fluorophenyl)methyl)amino)quinolin-6-yl)pyrimidin-2-yl)propan-2-ol]	< 1	–
CC(Nc1c(Cl)cnc2ccc(-c3ccc(C(C)(C)O)cc3)cc12)c1ccco1 (racemic) [Example 192, 2-(4-(3-chloro-4-((1-(furan-2-yl)ethyl)amino)quinolin-6-yl)phenyl)propan-2-ol]	< 1	–
CC(Nc1c(Cl)cnc2ccc(-c3ccc(C(C)(C)O)cc3)cc12)c1nccs1 (racemic) [Example 194, 2-(4-(3-chloro-4-((1-(thiazol-2-yl)ethyl)amino)quinolin-6-yl)phenyl)propan-2-ol]	< 1	–
CC(Nc1c(Cl)cnc2ccc(-c3ccc(C(C)(C)O)cc3)cc12)c1cnccn1 (racemic) [Example 198, 2-(4-(3-chloro-4-((1-(pyrazin-2-yl)ethyl)amino)quinolin-6-yl)phenyl)propan-2-ol]	< 1	–
CC(Nc1c(Cl)cnc2ccc(-c3ccc(C(C)(C)O)cc3)cc12)c1cccs1 (racemic) [Example 199, 2-(4-(3-chloro-4-((1-(thiophen-2-yl)ethyl)amino)quinolin-6-yl)phenyl)propan-2-ol]	< 1	–

Now from value to compound:

IC50 [1] [µM]	IC50 (TNF induced HEK-Blue assay IC50 value) [µM]	Structure (SMILES)
< 1	–	CC(Nc1c(Cl)cnc2ccc(-c3ccc(C(C)(C)O)cc3)cc12)c1ncco1 (racemic) [Example 179, 2-(4-(3-chloro-4-((1-(oxazol-2-yl)ethyl)amino)quinolin-6-yl)phenyl)propan-2-ol]
10 to 25	–	CC(Nc1c(Cl)cnc2ccc(-c3ccc(C(C)(C)O)cc3)cc12)c1ccnn1C (racemic) [Example 195, 2-(4-(3-chloro-4-((1-(1-methyl-1H-pyrazol-5-yl)ethyl)amino)quinolin-6-yl)phenyl)propan-2-ol]
< 1	–	CC(Nc1c(Cl)cnc2ccc(-c3ccc(C(C)(C)O)cc3)cc12)c1ccsc1 (racemic) [Example 196, 2-(4-(3-chloro-4-((1-(thiophen-3-yl)ethyl)amino)quinolin-6-yl)phenyl)propan-2-ol]
10 to 25	–	CC(Nc1c(Cl)cnc2ccc(-c3ccc(C(C)(C)O)cc3)cc12)c1cnn(C)c1 (racemic) [Example 197, 2-(4-(3-chloro-4-((1-(1-methyl-1H-pyrazol-4-yl)ethyl)amino)quinolin-6-yl)phenyl)propan-2-ol]
1 to 10	–	CC(Nc1c(Cl)cnc2ccc(-c3ccc(C(C)(C)O)cc3)cc12)c1ccn(C)n1 (racemic) [Example 200, 2-(4-(3-chloro-4-((1-(1-methyl-1H-pyrazol-3-yl)ethyl)amino)quinolin-6-yl)phenyl)propan-2-ol]
10 to 25	–	CC(Nc1c(Cl)cnc2ccc(-c3ccc(C(C)(C)O)cc3)cc12)c1nccn1C (racemic) [Example 201, 2-(4-(3-chloro-4-((1-(1-methyl-1H-imidazol-2-yl)ethyl)amino)quinolin-6-yl)phenyl)propan-2-ol]
< 1	–	CC(Nc1c(Cl)cnc2ccc(-c3ccc(C(C)(C)O)cc3)cc12)c1cscn1 (racemic) [Example 202, 2-(4-(3-chloro-4-((1-(thiazol-4-yl)ethyl)amino)quinolin-6-yl)phenyl)propan-2-ol]
< 1	–	CC(Nc1c(Cl)cnc2ccc(-c3ccc(C(C)(C)O)cc3)cc12)c1cnco1 (racemic) [Example 203, 2-(4-(3-chloro-4-((1-(oxazol-5-yl)ethyl)amino)quinolin-6-yl)phenyl)propan-2-ol]
< 1	–	CC(Nc1c(Cl)cnc2ccc(-c3ccc(C(C)(C)O)cc3)cc12)c1ccoc1 (racemic) [Example 204, 2-(4-(3-chloro-4-((1-(furan-3-yl)ethyl)amino)quinolin-6-yl)phenyl)propan-2-ol]
